According to ChEMBL document CHEMBL1649204, “Evaluation of analogs of reutericyclin as prospective candidates for treatment of staphylococcal skin infections” (Antimicrob Agents Chemother, 2009):
≈ marks a conversion by molar mass, not a printed value. Calls of active or inactive are those of the source. The rule behind the calls is not given here.

Columns and labels:
Staphylococcus aureus [1] = assay: Antimicrobial activity against Staphylococcus aureus 8235 by microdilution method; format: functional
Staphylococcus aureus [2] = assay: Bacteriostatic activity against Staphylococcus aureus isolate 8235 assessed as log reduction in bacterial count at 32 times MIC after 24 hrs by microdilution method; format: functional
[3] = Cytotoxicity against human CCD-32Sk cells after 48 hrs by MTT assay; format: cell-based
Staphylococcus aureus [4] = assay: Antimicrobial activity against mupirocin- and methicillin-resistant Staphylococcus aureus by microdilution method; format: functional
Staphylococcus aureus [5] = assay: Antimicrobial activity against Staphylococcus aureus isolate 8235 at >200 ug/ml by microdilution method in presence of 50 % human serum; format: functional, organism-based
Staphylococcus aureus [6] = assay: Antimicrobial activity against methicillin-resistant Staphylococcus aureus ATCC 33591 grown as biofilms by microdilution method; format: functional
Staphylococcus aureus [7] = assay: Antimicrobial activity against methicillin-susceptible Staphylococcus aureus ATCC 29213 by microdilution method; format: functional
Staphylococcus aureus [8] = assay: Antimicrobial activity against methicillin-susceptible Staphylococcus aureus ATCC 29213 grown as biofilms by microdilution method; format: functional
[9] = Therapeutic index, ratio of IC50 for human CCD-32Sk cells to MIC for Staphylococcus aureus 8235; format: cell-based; conditions: read-out: TI
Staphylococcus aureus [10] = assay: Antimicrobial activity against methicillin-susceptible Staphylococcus aureus by microdilution method; format: functional
[11] = tested on: Staphylococcus epidermidis; assay: Antimicrobial activity against Staphylococcus epidermidis RP62A by microdilution method; format: functional
[12] = tested on: Staphylococcus epidermidis; assay: Antimicrobial activity against Staphylococcus epidermidis RP62A grown as biofilms by microdilution method; format: functional
Staphylococcus aureus [13] = assay: Antimicrobial activity against Staphylococcus aureus 8235 selected after 4 times MIC pre-incubated for 1 hr by microdilution method; format: functional
Streptococcus pyogenes = assay: Antimicrobial activity against Streptococcus pyogenes by microdilution method; format: functional
Staphylococcus aureus [14] = assay: Antimicrobial activity against methicillin-resistant Staphylococcus aureus by microdilution method; format: functional
Staphylococcus aureus [15] = assay: Antimicrobial activity against methicillin-resistant Staphylococcus aureus ATCC 33591 by microdilution method; format: functional
Staphylococcus aureus [16] = assay: Antimicrobial activity against Staphylococcus aureus ATCC 29213 infected BALB/c mouse at 10 % administered topically 4 hrs post infection twice a day for 5 days; format: functional, organism-based
[17] = Homo sapiens, CCD-32Sk, 48 h, read-out: IC50

SMILES	MIC (Staphylococcus aureus [1])	FC (Staphylococcus aureus [2])	MIC50 (Staphylococcus aureus [4]) [µg/mL]	MIC90 (Staphylococcus aureus [4]) [µg/mL]	MIC (Staphylococcus aureus [7]) [µg/mL]	MBEC (Staphylococcus aureus [8])	MBIC (Staphylococcus aureus [8]) [µg/mL]	selectivity ratio [9]	IC50 [3, 17] [µg/mL]	MIC50 (Staphylococcus aureus [10]) [µg/mL]	MIC90 (Staphylococcus aureus [10]) [µg/mL]	MIC [11] [µg/mL]	MBEC [12] [µg/mL]	MBIC [12] [µg/mL]	MIC (Staphylococcus aureus [13]) [µg/mL]	MIC50 (Streptococcus pyogenes) [µg/mL]	MIC90 (Streptococcus pyogenes) [µg/mL]	MIC50 (Staphylococcus aureus [14]) [µg/mL]	MIC90 (Staphylococcus aureus [14]) [µg/mL]	MIC (Staphylococcus aureus [15]) [µg/mL]	other results
C=C(NC(=O)[C@@H](NC(=O)[C@H](Cc1cnc[nH]1)NC(=O)[C@@H](NC(=O)[C@H](CO)NC(=O)[C@@H]1CS[C@@H](C)[C@H]2NC(=O)C(=C)NC(=O)[C@H](NC(=O)[C@H](CCCCN)NC(=O)[C@H](CCSC)NC(=O)[C@H](CC(N)=O)NC(=O)[C@@H]3CS[C@@H](C)[C@@H](NC(=O)[C@H](CCCNN)NC(=O)[C@@H]4CS[C@@H](C)[C@@H](NC(=O)[C@@H]5CSC[C@@H](NC(=O)/C(=C\C)NC(=O)[C@@H](N)[C@@H](C)CC)C(=O)N[C@@H]([C@@H](C)CC)C(=O)NC(=C)C(=O)N[C@@H]([C@@H](C)CC)C(=O)N5)C(=O)N5CCC[C@H]5C(=O)NCC(=O)N4)C(=O)NCC(=O)N[C@@H](C)C(=O)N[C@@H]([C@@H](C)CC)C(=O)N[C@@H](CCSC)C(=O)NCC(=O)N3)[C@H](C)SC[C@H](NC2=O)C(=O)N[C@H](Cc2cnc[nH]2)C(=O)N1)[C@@H](C)CC)C(C)C)C(=O)N[C@@H](CCCCN)C(=O)O [NISIN]	inactive	2.6																			IC50 ([3]; ccd-32sk): Not Active
C/C(O)=C1\C(=O)[C@H](CC(C)C)N(CCC(C)C/C=C/C(C)C)C1=O (some centres not stated)	25 µg/mL (≈ 74.5 µM)	2.6	0.8 (≈ 2.38 µM)	1.6 (≈ 4.77 µM)	0.8 (≈ 2.38 µM)	50 µg/mL	3.12	10.2	256 (≈ 763 µM)	0.8 (≈ 2.38 µM)	1.6 (≈ 4.77 µM)	0.8 (≈ 2.38 µM)	200	0.4	0.8 (≈ 2.38 µM)	0.4 (≈ 1.19 µM)	0.8 (≈ 2.38 µM)	0.8 (≈ 2.38 µM)	1.6 (≈ 4.77 µM)	0.8 (≈ 2.38 µM)	MIC (Staphylococcus aureus [4]): 0.8 µg/mL (≈ 2.38 µM); Activity (Staphylococcus aureus [5]): inactive; MBIC (Staphylococcus aureus [6]): 0.4 µg/mL
C/C(O)=C1\C(=O)[C@H](CC(C)C)N(CC2=CCC3CC2C3(C)C)C1=O (some centres not stated)	25 µg/mL (≈ 75.4 µM)	2.6	3.12 (≈ 9.41 µM)	3.12 (≈ 9.41 µM)	1.6 (≈ 4.83 µM)	>=400 ug ml-1	6.2	15.1	377 (≈ 1140 µM)	1.6 (≈ 4.83 µM)	3.12 (≈ 9.41 µM)	3.12 (≈ 9.41 µM)	>400	1.6	1.6 (≈ 4.83 µM)	0.4 (≈ 1.21 µM)	1.6 (≈ 4.83 µM)	3.12 (≈ 9.41 µM)	3.12 (≈ 9.41 µM)	1.6 (≈ 4.83 µM)	Activity (Staphylococcus aureus [5]): inactive; MIC (Staphylococcus aureus [10]): 1.6 µg/mL (≈ 4.83 µM); Activity (Staphylococcus aureus [16]): Active
CC1(C)S[C@@H]2[C@H](NC(=O)[C@H](N)c3ccc(O)cc3)C(=O)N2[C@H]1C(=O)O [AMOXICILLIN]	inactive	2.6													12.5 (≈ 34.2 µM)						IC50 ([3]; ccd-32sk): Not Active
CCCCCCCCCCN1C(=O)/C(=C(/C)O)C(=O)[C@@H]1CC(C)C	25 µg/mL (≈ 74.1 µM)	2.6	0.8 (≈ 2.37 µM)	1.6 (≈ 4.74 µM)	0.8 (≈ 2.37 µM)	50 µg/mL	3.12	12.3	308 (≈ 914 µM)	0.4 (≈ 1.19 µM)	0.8 (≈ 2.37 µM)	0.4 (≈ 1.19 µM)	50	0.4	0.8 (≈ 2.37 µM)	0.2 (≈ 0.593 µM)	0.8 (≈ 2.37 µM)	0.8 (≈ 2.37 µM)	1.6 (≈ 4.74 µM)	0.8 (≈ 2.37 µM)	Activity (Staphylococcus aureus [5]): inactive; MBEC (Staphylococcus aureus [6]): 6.25 µg/mL; MBIC (Staphylococcus aureus [6]): 0.8 µg/mL; MIC (Staphylococcus aureus [10]): 0.4 µg/mL (≈ 1.19 µM); Activity (Staphylococcus aureus [16]): Active
CN[C@H](CC(C)C)C(=O)N[C@H]1C(=O)N[C@@H](CC(N)=O)C(=O)N[C@H]2C(=O)N[C@H]3C(=O)N[C@H](C(=O)N[C@H](C(=O)O)c4cc(O)cc(O)c4-c4cc3ccc4O)[C@H](O)c3ccc(c(Cl)c3)Oc3cc2cc(c3O[C@@H]2O[C@H](CO)[C@@H](O)[C@H](O)[C@H]2O[C@H]2C[C@](C)(N)[C@H](O)[C@H](C)O2)Oc2ccc(cc2Cl)[C@H]1O [VANCOMYCIN]	0.8 µg/mL (≈ 0.552 µM)		> 200	> 200	0.8 (≈ 0.552 µM)	>400 µg/mL	3.12	> 25000	> 20000	0.12 (≈ 0.0828 µM)	0.2 (≈ 0.138 µM)	1.6 (≈ 1.1 µM)	>400	12.5		0.024 (≈ 0.0166 µM)	0.024 (≈ 0.0166 µM)	0.2 (≈ 0.138 µM)	0.4 (≈ 0.276 µM)	1.6 (≈ 1.1 µM)	MBEC (Staphylococcus aureus [6]): >400 µg/mL; MBIC (Staphylococcus aureus [6]): 1.6 µg/mL; MIC (Staphylococcus aureus [10]): 0.05 µg/mL (≈ 0.0345 µM)
CCCCCCCCCCN1C(=O)/C(=C(/C)O)C(=O)[C@@H]1C(C)C	25 µg/mL (≈ 77.3 µM)	2.6	1.6 (≈ 4.95 µM)	3.12 (≈ 9.65 µM)	0.8 (≈ 2.47 µM)	25 µg/mL	1.6	14.4	356 (≈ 1100 µM)	0.8 (≈ 2.47 µM)	0.8 (≈ 2.47 µM)	0.8 (≈ 2.47 µM)	25	0.8	0.8 (≈ 2.47 µM)	0.2 (≈ 0.618 µM)	0.8 (≈ 2.47 µM)	0.8 (≈ 2.47 µM)	1.6 (≈ 4.95 µM)	0.8 (≈ 2.47 µM)	Activity (Staphylococcus aureus [5]): inactive; MBIC (Staphylococcus aureus [6]): 0.8 µg/mL
C/C(O)=C1\C(=O)[C@H](CC(C)C)N(Cc2ccc(-c3ccccc3)cc2)C1=O	25 µg/mL (≈ 68.8 µM)	2.6	1.6 (≈ 4.4 µM)	1.6 (≈ 4.4 µM)	0.8 (≈ 2.2 µM)	100 µg/mL	3.12	21.2	529 (≈ 1460 µM)	0.8 (≈ 2.2 µM)	1.6 (≈ 4.4 µM)	0.8 (≈ 2.2 µM)	200	1.6	0.8 (≈ 2.2 µM)	0.2 (≈ 0.55 µM)	0.8 (≈ 2.2 µM)	1.6 (≈ 4.4 µM)	1.6 (≈ 4.4 µM)	0.8 (≈ 2.2 µM)	Activity (Staphylococcus aureus [5]): inactive; MBIC (Staphylococcus aureus [6]): 0.8 µg/mL; MIC (Staphylococcus aureus [10]): 0.8 µg/mL (≈ 2.2 µM)
CO[C@H]1/C=C/O[C@@]2(C)Oc3c(C)c(O)c4c(O)c(c(/C=N/N5CCN(C)CC5)c(O)c4c3C2=O)NC(=O)/C(C)=C\C=C\[C@H](C)[C@H](O)[C@@H](C)[C@@H](O)[C@@H](C)[C@H](OC(C)=O)[C@@H]1C [RIFAMPIN]					0.006 (≈ 0.00729 µM)	25 µg/mL	<0.2					0.012 (≈ 0.0146 µM)	50	<0.2						0.012 (≈ 0.0146 µM)	MBEC (Staphylococcus aureus [6]): 6.25 µg/mL
